From patent publication US12384751B2, “Allosteric activators of the ALPHA1A-adrenergic receptor” (The Cleveland Clinic Foundation, priority 2019, dated 2025)
Entries after “also recorded” stand apart in the source; their conditions may differ.

Target: T1, α1A-AR (Homo sapiens, UniProt P35348)
T1 sequence (P35348 1-466): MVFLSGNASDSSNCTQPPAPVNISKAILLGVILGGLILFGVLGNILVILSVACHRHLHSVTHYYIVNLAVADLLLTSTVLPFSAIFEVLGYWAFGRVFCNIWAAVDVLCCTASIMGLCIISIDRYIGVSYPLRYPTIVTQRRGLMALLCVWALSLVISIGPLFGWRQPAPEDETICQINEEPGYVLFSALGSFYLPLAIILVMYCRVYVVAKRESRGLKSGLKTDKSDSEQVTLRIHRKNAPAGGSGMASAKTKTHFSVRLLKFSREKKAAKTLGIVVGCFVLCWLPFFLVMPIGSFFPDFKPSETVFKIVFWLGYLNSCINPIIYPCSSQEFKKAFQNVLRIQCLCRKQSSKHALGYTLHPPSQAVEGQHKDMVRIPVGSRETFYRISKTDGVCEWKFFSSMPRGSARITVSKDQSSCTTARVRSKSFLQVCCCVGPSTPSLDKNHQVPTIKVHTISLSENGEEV
Assay: Total inositol phosphate assay at α1A-AR
Format: cell-based
Set-up: expressed in transfected cells; host or cells: Rat-1 fibroblast cells
Procedure: Total Inositol Phosphate assay: Cells expressing a single α1-adrenergic receptor subtypes are washed and re-plated into 6-well plates containing DMEM media at approximately 5×10^5 cells/well. Cells are allowed to rest till the next day in a CO2 incubator at 37° C. The cells are washed twice with DMEM (no serum), then 2 ml of DMEM is added to each well. 2 ul of ^3H-inositol (at 1 uCi/mL, Perkin-Elmer NET 114 005MC) and 10 mM LiCl is added to each well. The cells are incubated for 1 hour at 37° C. in a CO2 incubator. […] The cells are incubated again for 1 hour at 37° C. in a CO2 incubator. The media is aspirated and 1 mL of ice-cold 0.4M perchloric acid is added. The cells are scraped, transferred to a vial, then 1 mL 0.72M KOH/0.6M KHCO3 is added, the tube vortexed and the contents centrifuged at 2000 rpm for 10 mins. The supernatant is removed and applied to BioRad polyprep columns packed with 1 mL of AG1-X8 resin (BioRad AG1-X8 resin 100-200 mesh #140-1444) in 0.1M formic acid in a holding tray which is over a plastic catch tray. The supernatant is allowed to naturally drip through the column then washed with 8 ml of 0.1M formic acid (2 ml at a time). The columns are transferred via the holding tray to a box of 20 ml scintillation vials so that the columns drip directly into the vials. Total inositol phosphates are eluted off the column with 2 ml of 0.1M formic acid/1M ammonium formate. The columns are eluted a second time into a new scintillation vial with another 2 ml of 0.1M formic acid/1M ammonium formate. 18 ml of Ecoscint A is added to each scintillation vial and vortexed. The vials are allowed to dark adapt overnight at room temperature to reduce autofluorescence. The vials are counted in a scintillation counter on the tritium channel and the cpms from the first and second fractions eluted off the columns are added together.

CC(C)Cc1c(OCC2=NCCN2)cccc1N(C)S(C)(=O)=O [Compound 3, N-[3-(4,5-Dihydro-1H-imidazol-2-ylmethoxy)-2-isobutyl-phenyl]-N-methyl-methanesulfonamide]
effect on epinephrine-mediated inositol phosphate response at the α1A-AR: no effect | effect on norepinephrine-mediated inositol phosphate response at the α1A-AR: does not have any effect; also recorded: no effect | stimulation of inositol phosphate / agonist activity by the compound by itself (compound alone): cannot stimulate
